Results reported in publication PMC10454678, “Synthesis of hydroxy benzoin/benzil analogs and investigation of their antioxidant, antimicrobial, enzyme inhibition, and cytotoxic activities” (Turkish Journal of Chemistry, 2021).

Experiments:
[1] = system: Escherichia coli ATCC 25922; test: MIC, microdilution, E. coli; assay type: cell-based; settings: Gram (-); Mueller-Hinton broth, 18-24 h, 36 °C
[2] = system: Yersinia pseudotuberculosis ATCC911; test: microbe, parasite or virus in culture; assay type: cell-based; settings: Gram (-); Mueller-Hinton broth, 18-24 h, 36 °C
[3] = system: Pseudomonas aeruginosa ATCC27853; test: MIC, microdilution, P. aeruginosa; assay type: cell-based; settings: Gram (-); Mueller-Hinton broth, 18-24 h, 36 °C
[4] = system: Staphylococcus aureus ATCC25923; test: MIC, microdilution, S. aureus; assay type: cell-based; settings: Gram (+); Mueller-Hinton broth, 18-24 h, 36 °C
[5] = system: Streptococcus mutans RSKK07038; test: MIC, microdilution, S. mutans; assay type: cell-based; settings: Gram (+); BHI broth, 72 h, 36 °C
[6] = system: Enterococcus faecalis ATCC29212; test: MIC, microdilution, E. faecalis; assay type: cell-based; settings: Gram (+); Mueller-Hinton broth, 18-24 h, 36 °C
[7] = system: Bacillus cereus Roma709; test: MIC, microdilution, B. cereus; assay type: cell-based; settings: Gram (+); Mueller-Hinton broth, 18-24 h, 36 °C
[8] = system: Mycobacterium smegmatis ATCC607; test: MIC, microdilution, M. smegmatis; assay type: cell-based; settings: Tub.; BHI broth, 72 h, 36 °C
[9] = system: Candida albicans ATCC60193; test: MIC, microdilution, C. albicans; assay type: cell-based; settings: fungus; YEPD broth, 48 h, 36 °C
[10] = biological target: acetylcholinesterase (Homo sapiens, UniProt P22303); test: biochemical; settings: Tris-HCl pH 8.0, 25 °C, 405 nm
[11] = biological target: butyrylcholinesterase (Homo sapiens, UniProt P06276); test: biochemical; settings: Tris-HCl pH 8.0, 25 °C, 405 nm
[12] = biological target: tyrosinase (Agaricus bisporus, UniProt C7FF04); test: Tyrosinase inhibition (dopachrome method); assay type: biochemical; settings: L-DOPA substrate, pH 6.8, 25 °C, 492 nm
[13] = biological target: α-amylase (Sus scrofa, UniProt P00690); test: α-Amylase inhibition (Caraway-Somogyi I2/KI method); assay type: biochemical; settings: starch, pH 6.9, 37 °C, 630 nm
[14] = biological target: α-glucosidase; test: α-Glucosidase inhibition; assay type: biochemical; settings: PNPG, pH 6.8, 37 °C, 400 nm
Method: It was incubated at 37 °C for 15 min. Similarly, an enzyme-free blank was prepared. The reaction was stopped when sodium carbonate (50 μL, 0.2 M) was added.

[15] = DPPH radical scavenging activity; settings: 0.1 mM DPPH, 50 min dark, 517 nm
[16] = Copper ions reducing activity (CUPRAC); settings: Trolox equivalents; 30 min dark, room temperature, 450 nm
[17] = Ferric reducing antioxidant power (FRAP) assay; settings: Trolox equivalents, compounds 2 mg/mL, 30 °C 30 min, 595 nm
[18] = system: human retinal normal cell line (RPE); test: MTT cell proliferation, RPE; settings: MTT, 24 h incubation
[19] = system: human cervical cancer cell line (HeLa); test: MTT cell proliferation, HeLa; settings: MTT, 24 h incubation

Sequence of α-amylase (P00690 16-511): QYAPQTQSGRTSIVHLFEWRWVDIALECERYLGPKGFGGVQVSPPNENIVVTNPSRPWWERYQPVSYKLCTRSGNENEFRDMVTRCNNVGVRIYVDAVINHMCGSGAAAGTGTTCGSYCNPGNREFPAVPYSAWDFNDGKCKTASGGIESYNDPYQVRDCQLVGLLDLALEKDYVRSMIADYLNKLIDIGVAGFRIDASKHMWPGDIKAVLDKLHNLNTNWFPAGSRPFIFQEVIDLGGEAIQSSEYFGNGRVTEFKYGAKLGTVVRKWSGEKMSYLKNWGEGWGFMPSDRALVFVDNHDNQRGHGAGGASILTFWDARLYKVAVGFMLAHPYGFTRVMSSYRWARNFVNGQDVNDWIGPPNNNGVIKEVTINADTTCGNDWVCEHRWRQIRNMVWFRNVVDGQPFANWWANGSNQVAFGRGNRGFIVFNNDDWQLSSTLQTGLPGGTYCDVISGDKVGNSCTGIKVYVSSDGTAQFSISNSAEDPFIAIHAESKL
Sequence of tyrosinase (C7FF04 1-392): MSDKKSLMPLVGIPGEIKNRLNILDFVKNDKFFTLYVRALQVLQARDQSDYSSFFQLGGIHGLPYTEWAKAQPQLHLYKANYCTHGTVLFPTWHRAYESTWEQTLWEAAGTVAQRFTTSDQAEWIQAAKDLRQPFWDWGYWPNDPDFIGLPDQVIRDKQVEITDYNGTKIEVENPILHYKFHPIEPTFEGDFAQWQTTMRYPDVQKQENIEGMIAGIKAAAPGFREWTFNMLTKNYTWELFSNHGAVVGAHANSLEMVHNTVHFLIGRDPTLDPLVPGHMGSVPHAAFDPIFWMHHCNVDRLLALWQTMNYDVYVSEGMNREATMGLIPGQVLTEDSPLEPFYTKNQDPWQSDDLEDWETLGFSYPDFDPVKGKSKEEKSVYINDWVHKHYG
Sequence of acetylcholinesterase (P22303 32-614, species assumed): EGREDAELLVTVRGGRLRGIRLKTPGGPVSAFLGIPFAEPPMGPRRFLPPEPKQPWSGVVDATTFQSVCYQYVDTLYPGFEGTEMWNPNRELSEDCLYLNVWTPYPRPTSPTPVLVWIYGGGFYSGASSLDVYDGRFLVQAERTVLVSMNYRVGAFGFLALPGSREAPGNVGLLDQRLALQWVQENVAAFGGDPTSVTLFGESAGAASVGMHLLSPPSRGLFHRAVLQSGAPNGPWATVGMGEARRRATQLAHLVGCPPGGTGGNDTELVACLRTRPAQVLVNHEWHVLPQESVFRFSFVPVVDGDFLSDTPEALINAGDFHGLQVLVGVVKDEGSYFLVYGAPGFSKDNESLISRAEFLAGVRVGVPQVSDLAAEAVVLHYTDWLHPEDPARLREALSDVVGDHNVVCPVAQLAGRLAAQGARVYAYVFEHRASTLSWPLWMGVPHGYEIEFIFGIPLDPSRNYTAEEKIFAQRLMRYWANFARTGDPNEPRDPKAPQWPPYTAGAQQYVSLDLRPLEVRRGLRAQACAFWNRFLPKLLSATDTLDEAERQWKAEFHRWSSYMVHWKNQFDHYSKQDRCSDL
Sequence of butyrylcholinesterase (P06276 29-602): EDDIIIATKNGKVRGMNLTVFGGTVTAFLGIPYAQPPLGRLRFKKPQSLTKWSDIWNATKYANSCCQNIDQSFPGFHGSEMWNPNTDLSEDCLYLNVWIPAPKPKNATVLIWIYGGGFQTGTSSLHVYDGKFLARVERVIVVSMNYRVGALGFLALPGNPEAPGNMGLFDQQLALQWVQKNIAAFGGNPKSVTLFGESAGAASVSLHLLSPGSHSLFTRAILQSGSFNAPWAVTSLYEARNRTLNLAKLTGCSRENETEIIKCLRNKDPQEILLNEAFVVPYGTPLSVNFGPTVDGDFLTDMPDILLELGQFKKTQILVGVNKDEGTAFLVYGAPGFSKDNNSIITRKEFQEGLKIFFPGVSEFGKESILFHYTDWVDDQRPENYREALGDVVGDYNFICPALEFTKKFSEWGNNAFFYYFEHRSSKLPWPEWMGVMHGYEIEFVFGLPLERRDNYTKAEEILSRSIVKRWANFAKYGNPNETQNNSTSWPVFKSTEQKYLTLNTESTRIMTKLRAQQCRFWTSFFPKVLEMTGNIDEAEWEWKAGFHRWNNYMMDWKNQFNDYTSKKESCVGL

Substance: 2-Hydroxy-1-(3,5-dihydroxyphenyl)-2-(3-hydroxyphenyl)ethanone and 2-Hydroxy-1-(3-hydroxyphenyl)-2-(3,5-dihydroxyphenyl)ethanone [6a+b]
- MIC Ec [1]: 103 µg/mL
- MIC Yp [2]: 103 µg/mL
- MIC Pa [3]: 52 µg/mL
- MIC Sa [4]: 12 µg/mL
- MIC Sm [5]: 12 µg/mL
- MIC Ef [6]: 24 µg/mL
- MIC Bc [7]: 24 µg/mL
- MIC Ms [8]: 12 µg/mL
- MIC Ca [9]: 103 µg/mL
- AChE IC50 [10]: >1000 µg/mL
- BChE IC50 [11]: 592.92 µg/mL
- Tyrosinase IC50 [12]: 25.45 µg/mL
- α-Amylase IC50 [13]: 230.76 µg/mL
- α-Glucosidase IC50 [14]: 76.53 µg/mL
- DPPH radical scavenging capacity (SC50) [15]: 9.48 ± 0.3 mg/mL
- CUPRAC, copper reducing antioxidant power [16]: 506.67 ± 17.3 μg/mL trolox/gram DW
- FRAP, the iron reducing antioxidant power [17]: 2237 ± 58.3 μg/mL trolox/gram DW
- FRAP, the iron reducing antioxidant power ([17]; listed as 6): 2237±58.3 μg/mL trolox/gram DW

Substance: 2-Hydroxy-1-(3-O- β -D-glucopyranosylphenyl)-2-(3-hydroxyphenyl)-ethanone; 2-Hydroxy-1-(3-hydroxyphenyl)-2-(3-O- β -D-glucopyranosylphenyl)ethanone [18a+b]
- Tyrosinase IC50 [12]: >1000 µg/mL
- α-Amylase IC50 [13]: >1000 µg/mL
- α-Glucosidase IC50 [14]: >1000 µg/mL
- GI50 RPE normal cell line [18]: 1.90 µg/mL
- IC50 RPE normal cell line [18]: 83.81 µg/mL
- GI50 HeLa cell line [19]: 2.23 µg/mL
- IC50 HeLa cell line [19]: 104.49 µg/mL
- DPPH radical scavenging capacity (SC50) [15]: 12.11 ± 0.43 mg/mL
- CUPRAC, copper reducing antioxidant power [16]: 385.80 ± 37.12 μg/mL trolox/gram DW
- FRAP, the iron reducing antioxidant power [17]: 2743.75 ± 25.20 μg/mL trolox/gram DW
